# Reference: PubChem BioAssay (NCI)
#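 Assay format: 96-well plates, 48-hour exposure. TGI: total growth inhibition.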
# What was measured:
# Assay in all cases: NCI tumour cell line growth inhibition, 48 h
# [1] = tested on: 786-0 renal
# [2] = tested on: A498 renal
# [3] = tested on: A549 NSCLC
# [4] = tested on: ACHN renal
# [5] = tested on: CCRF-CEM leukemia
# [6] = tested on: COLO 205 colon
# [7] = tested on: DU-145 prostate
# [8] = tested on: EKVX NSCLC
# [9] = tested on: HCC-2998 colon
# [10] = tested on: HCT-15 colon
# [11] = tested on: HL-60(TB) leukemia
# [12] = tested on: HOP-62 NSCLC
# [13] = tested on: HOP-92 NSCLC
# [14] = tested on: IGROV1 ovarian
# [15] = tested on: K-562 leukemia
# [16] = tested on: LOX IMVI melanoma
# [17] = tested on: M14 melanoma
# [18] = tested on: MALME-3M melanoma
# [19] = tested on: MCF7 breast
# [20] = tested on: MDA-MB-231 breast
# [21] = tested on: MDA-MB-435
# [22] = tested on: MDA-N
# [23] = tested on: MOLT-4 leukemia
# [24] = tested on: NCI-H226 lung
# [25] = tested on: NCI-H23 lung
# [26] = tested on: NCI/ADR-RES ovarian
# [27] = tested on: OVCAR-4 ovarian
# [28] = tested on: OVCAR-5 ovarian
# [29] = tested on: OVCAR-8 ovarian
# [30] = tested on: PC-3 prostate
# [31] = tested on: RXF 393 renal
# [32] = tested on: SF-268 CNS
# [33] = tested on: SF-295 CNS
# [34] = tested on: SK-MEL-28 melanoma
# [35] = tested on: SK-MEL-5 melanoma
# [36] = tested on: SK-OV-3 ovarian
# [37] = tested on: SN12C renal
# [38] = tested on: SNB-19 CNS
# [39] = tested on: SR leukemia
# [40] = tested on: SW-620 colon
# [41] = tested on: T-47D breast
# [42] = tested on: TK-10 renal
# [43] = tested on: U251 CNS
# [44] = tested on: UACC-257 melanoma
# [45] = tested on: UACC-62 melanoma
# [46] = tested on: HCT-116 colon
# [47] = tested on: KM12 colon
# [48] = tested on: NCI-H460 lung
# [49] = tested on: NCI-H522 lung
# [50] = tested on: OVCAR-3 ovarian
# [51] = tested on: SF-539 CNS
# [52] = tested on: SK-MEL-2 melanoma
# [53] = tested on: SNB-75 CNS
# [54] = tested on: CAKI-1 renal
# [55] = tested on: HT29 colon
# [56] = tested on: RPMI-8226 leukemia
# [57] = tested on: UO-31 renal
smiles,measurement,setting,value
COc1cccc2c1C(=O)c1c(O)c3c(c(O)c1C2=O)CC(O)(C(O)CO)CC3OC1CC2C(OC3COCC(C#N)N32)C(C)O1 (stereo unspecified),TGI,[1],0.0282 µM
same,TGI,[2],< 0.01 µM
same,TGI,[3],> 100 µM
same,TGI,[4],0.213 µM
same,TGI,[5],< 0.01 µM
same,TGI,[6],< 0.01 µM
same,TGI,[7],0.406 µM
same,TGI,[8],0.0644 µM
same,TGI,[9],< 0.01 µM
same,TGI,[10],1.04 µM
same,TGI,[11],< 0.01 µM
same,TGI,[12],0.0432 µM
same,TGI,[13],< 0.01 µM
same,TGI,[14],< 0.01 µM
same,TGI,[15],< 0.01 µM
same,TGI,[16],0.0125 µM
same,TGI,[17],< 0.01 µM
same,TGI,[18],< 0.01 µM
same,TGI,[19],2.15 µM
same,TGI,[20],0.0139 µM
same,TGI,[21],< 0.01 µM
same,TGI,[22],< 0.01 µM
same,TGI,[23],< 0.01 µM
same,TGI,[24],< 0.01 µM
same,TGI,[25],< 0.01 µM
same,TGI,[26],< 0.01 µM
same,TGI,[27],< 0.01 µM
same,TGI,[28],4.31 µM
same,TGI,[29],1.71 µM
same,TGI,[30],0.0194 µM
same,TGI,[31],< 0.01 µM
same,TGI,[32],0.0324 µM
same,TGI,[33],> 100 µM
same,TGI,[34],< 0.01 µM
same,TGI,[35],< 0.01 µM
same,TGI,[36],0.0727 µM
same,TGI,[37],1.47 µM
same,TGI,[38],0.0144 µM
same,TGI,[39],> 100 µM
same,TGI,[40],13.5 µM
same,TGI,[41],< 0.01 µM
same,TGI,[42],< 0.01 µM
same,TGI,[43],0.13 µM
same,TGI,[44],< 0.01 µM
same,TGI,[45],< 0.01 µM
O=c1oc2ccccc2c(O)c1/C=N/C(=S)Nc1ccccc1,TGI,[2],> 100 µM
same,TGI,[3],> 100 µM
same,TGI,[4],> 100 µM
same,TGI,[5],> 100 µM
same,TGI,[6],> 100 µM
same,TGI,[7],> 100 µM
same,TGI,[8],> 100 µM
same,TGI,[9],> 100 µM
same,TGI,[46],> 100 µM
same,TGI,[10],> 100 µM
same,TGI,[12],> 100 µM
same,TGI,[15],> 100 µM
same,TGI,[47],> 100 µM
same,TGI,[16],> 100 µM
same,TGI,[17],> 100 µM
same,TGI,[20],> 100 µM
same,TGI,[22],> 100 µM
same,TGI,[23],> 100 µM
same,TGI,[24],> 100 µM
same,TGI,[25],> 100 µM
same,TGI,[48],> 100 µM
same,TGI,[49],> 100 µM
same,TGI,[26],> 100 µM
same,TGI,[50],> 100 µM
same,TGI,[27],> 100 µM
same,TGI,[28],> 100 µM
same,TGI,[29],> 100 µM
same,TGI,[30],> 100 µM
same,TGI,[31],0.833 µM
same,TGI,[32],> 100 µM
same,TGI,[33],> 100 µM
same,TGI,[51],> 100 µM
same,TGI,[52],94.7 µM
same,TGI,[34],> 100 µM
same,TGI,[35],> 100 µM
same,TGI,[37],> 100 µM
same,TGI,[53],97.8 µM
same,TGI,[41],> 100 µM
same,TGI,[44],> 100 µM
same,TGI,[45],> 100 µM
N#CCCC1(CCC#N)CCc2ccccc2C1=O,TGI,[1],> 100 µM
same,TGI,[4],> 100 µM
same,TGI,[54],> 100 µM
same,TGI,[5],> 100 µM
same,TGI,[7],> 100 µM
same,TGI,[8],> 100 µM
same,TGI,[9],> 100 µM
same,TGI,[46],> 100 µM
same,TGI,[10],> 100 µM
same,TGI,[11],> 100 µM
same,TGI,[12],> 100 µM
same,TGI,[55],> 100 µM
same,TGI,[14],> 100 µM
same,TGI,[15],> 100 µM
same,TGI,[47],> 100 µM
same,TGI,[16],> 100 µM
same,TGI,[17],> 100 µM
same,TGI,[18],> 100 µM
same,TGI,[19],> 100 µM
same,TGI,[20],> 100 µM
same,TGI,[21],> 100 µM
same,TGI,[22],> 100 µM
same,TGI,[23],> 100 µM
same,TGI,[24],> 100 µM
same,TGI,[25],> 100 µM
same,TGI,[48],> 100 µM
same,TGI,[49],> 100 µM
same,TGI,[26],> 100 µM
same,TGI,[50],> 100 µM
same,TGI,[27],> 100 µM
same,TGI,[28],> 100 µM
same,TGI,[29],> 100 µM
same,TGI,[30],> 100 µM
same,TGI,[56],> 100 µM
same,TGI,[32],> 100 µM
same,TGI,[51],> 100 µM
same,TGI,[52],> 100 µM
same,TGI,[34],> 100 µM
same,TGI,[35],> 100 µM
same,TGI,[36],> 100 µM
same,TGI,[37],> 100 µM
same,TGI,[38],> 100 µM
same,TGI,[53],> 100 µM
same,TGI,[39],> 100 µM
same,TGI,[40],> 100 µM
same,TGI,[41],> 100 µM
same,TGI,[42],> 100 µM
same,TGI,[43],> 100 µM
same,TGI,[44],> 100 µM
same,TGI,[45],> 100 µM
same,TGI,[57],> 100 µM
